Measurements published in patent publication US7425573B2, “Use of annellated pyrrole compounds in the treatment of articular cartilage or subchondral bone degeneration” (priority 2001, dated 2008).

Legend:
[1] = system: experimental osteoarthritis (OA) dog model; assay: Experimental OA dog model (ACL section), macroscopic grading of the knee; type: in vivo; conditions: for reduction of size of cartilage lesions on tibial plateaus vs placebo: P<0.01; for width of osteophytes: mean±SEM, placebo 4.50±0.66, not significant; for osteophytes present (share of condyles): placebo 93%
Protocol: (§1) Twenty-one adult crossbred dogs (2-3 years old), weighing 20-25 kg each, were used in this study. Surgical sectioning of the anterior cruciate ligament (ACL) of the right knee through a stab wound was performed on all dogs as previously described (5,6). Prior to surgery, the animals were anesthetized intravenously with pentobarbital sodium (25 mg/kg) and intubated. Following surgery, the dogs were kept at a housing farm where they were free to exercise in a large pen.
(§2) The dogs were randomly separated into 3 treatment groups. Group 1 (n=7 dogs) was made up of dogs that received placebo (encapsulated methylcellulose) treatment (OA dogs); Groups 2 and 3 (n=7 dogs per group) received encapsulated ML3000 twice daily for 8 weeks at total doses of 2.5 and 5 mg/kg, respectively, beginning the day following surgery. The medication was administered 7 days/week throughout the duration of the study. All dogs were killed 8 weeks after surgery.
Immediately after killing, the right knee of each dog was dissected, placed on ice, and the synovial fluid aspirated. Each knee was examined by 2 independent, blinded observers (DVJ, JCF) for gross morphologic changes including the presence of osteophyte formation and cartilage lesions as previously described (5,6). The degree of osteophyte formation was graded by measuring the maximal width (mm) of the spur of each femoral condyle. The cartilage changes on the medial and lateral femoral condyles and tibial plateaus were graded separately under a dissecting microscope (Stereozoom; Bausch & Lomb, Rochester, N.Y.).
The area of the articular surface changes was measured and expressed in mm^2. The depth of erosion was graded on a scale of 0-4, as follows: 0=surface appears normal, 1=minimal fibrillation or a slight yellowish discoloration of the surface, 2=erosion extended into superficial or middle layers, 3=erosion extended into deep,layers, and 4=erosion extended to the subchondral bone.

PGE2 = PGE2 measurement in synovial fluid of OA dogs (EIA); type: in vivo, dog; conditions: 2.5 and 5 mg/kg/day; placebo 652.8±149.9 pg/ml
Protocol: as §2
Synovial fluid taken at the time of sacrifice was centrifuged (14000 g, 15 minutes, 4° C.), and supernatants used for PGE2 determination. The level of PGE2 was determined using a specific enzyme immunoassay (EIA) (Cayman Chemical, Ann Arbor, Mich.).

collagenase-1 (MMP-1) = assay: Immunohistochemistry, chondrocyte cell score for collagenase-1 in cartilage of OA dogs; type: in vivo, dog; conditions: condyles and plateaus, both doses, slightly more pronounced at highest dosage
Protocol: as §2
Cartilage and synovial membrane specimens were processed for immunohistochemical analysis as previously described (7,14). Briefly, specimens were fixed in 4% neutral buffered formalin for 24 hours, then embedded in paraffin. […]
Cartilage. Quantification of the different antigens in cartilage was done using a published method (7,14). […] For each arthritic specimen, it was ensured prior to evaluation that an intact cartilage surface could be detected and used as a marker for validation of morphometric analysis. The total number of chondrocytes and the number of chondrocytes staining positive for the specific antigen were determined. The final results were expressed as the percentage of chondrocytes staining positive for the antigen (cell score) with the maximum score being 100%. […]

interleukin-1β (IL-1β) = assay: Immunohistochemistry, synovial membrane cell score for IL-1β in OA dogs; type: in vivo, dog; conditions: 2.5 and 5 mg/kg/day
Protocol: as §2
Cartilage and synovial membrane specimens were processed for immunohistochemical analysis as previously described (7,14). Briefly, specimens were fixed in 4% neutral buffered formalin for 24 hours, then embedded in paraffin. Sections (5 μm) of paraffin-embedded specimens were placed on Superfrost Plus slides (Fisher Scientific, Nepean, Ontario, Canada), deparaffinized in toluene, dehydrated in a graded series of ethanol, and preincubated with chondroitinase ABC (0.25 units/ml) in phosphate buffered saline (PBS; Sigma-Aldrich Canada) for 60 minutes at 37° C. […]
Synovial membrane. For synovial membrane analysis, a cell score of the different specimens was determined for each section using our published method (8). […] The percentage of cells staining positive for the specific antigen was evaluated in each field as described above for cartilage. […]

[2] = system: experimental osteoarthritis (OA) dog model; assay: Experimental OA dog model, histologic grading of cartilage and synovial membrane; type: in vivo
Protocol: as §1, §2
Histologic evaluation was performed on sagittal sections of cartilage from the lesioned areas of each femoral condyle and tibial plateau as described (7,8). Specimens were dissected, fixed in TissuFix #2 (Laboratoires Gilles Chaput, Montréal, Québec, Canada), and embedded in paraffin for histologic evaluation. Serial sections (5 μm) were stained with Safranin O. The severity of the OA lesions was graded on scale of 0-14, by 2 independent observers (DJ, JF), using the histologic/histochemical scale of Mankin et al (12). This scale evaluates the severity of OA lesions based on the loss of staining with Safranin O (scale 0-4), cellular changes (scale 0-3), invasion of the tidemark by blood vessels (scale 0-1), and structural changes (scale 0-6, where 0=normal cartilage structure and 6=erosion of the cartilage down to the subchondral bone). This scoring system was based on the most severe histologic changes within each cartilage section.
Representative specimens of synovial membrane from the gutters of the medial and lateral knee compartments were also dissected from underlying tissue. The specimens were fixed in TissuFix #2, embedded in paraffin, sectioned (5 μm), and stained with hematoxylin and eosin. Two synovial membrane specimens from each compartment were examined, serial selections were made throughout the specimens, and each one scored separately. The highest score from each specimen was recorded. The average was calculated and considered as a unit for the whole knee. The severity of synovitis was graded on a scale of 0-10 (13) by 2 independent observers (DVJ, JCF) adding the scores for 3 histologic criteria: synovial lining cell hyperplasia (scale 0-2), villous hyperplasia (scale 0-3), and degree of cellular infiltration by mononuclear and polymorphonuclear cells (scale 0-5).

[3] = system: carrageenan-induced paw edema; conditions: rat; cited from earlier work
[4] = Plasma ML3000 level after immediate release dosage forms; type: in vivo; conditions: immediate release dosage form, for 8 hours
rat adjuvant arthritis = conditions: cited from earlier work
LTB4 = LTB4 production in synovial explant culture of OA dogs (LPS, EIA); type: in vivo, dog; conditions: both treated groups, explants with 1 μg/ml LPS; placebo 2.48±0.69 pg/mg tissue
Protocol: as §2
Representative specimens of synovial membrane from all dogs were aseptically dissected from underlying tissue. The specimens were rinsed several times in Dulbecco's Modified Eagle's Medium (DMEM; Gibco-BRL Life Technologies, Burlington, Ontario, Canada), and 150 mg of tissue incubated (duplicate) for 48 hours at 37° C. in a humidified atmosphere of 5% CO2/95% air in DMEM medium in the presence of 1 μg/ml lipopolysaccharide (LPS; Sigma-Aldrich Canada, Oakville, Ontario, Canada). The LTB4 was extracted from cultured synovium explants as follows: membranes were homogenized in EIA buffer (1 M phosphate, pH 7.4, containing 1% BSA, 4 M NaCl, 10 mM EDTA and 0.1% sodium azide) and centrifuged (30000 g, 20 minutes, 4° C.). Supernatants were collected and the levels of LTB4 determined using EIA (Cayman Chemical).

[5] = Clinical observation of dogs during 8 weeks of treatment; type: in vivo; conditions: all dogs of the 3 experimental groups
Protocol: as §1, §2

[6] = system: experimental dog model of OA; conditions: cited from earlier work
knee OA patients = conditions: X-ray criteria, 5-year period; cited from earlier work

SMILES: CC1(C)Cc2c(-c3ccccc3)c(-c3ccc(Cl)cc3)c(CC(=O)O)n2C1 [ML3000, [2,2-dimethyl-6-(4-chlorophenyl)-7-phenyl-2,3-dihydro-1H-pyrrolizine-5yl]-acetic acid]
- reduction of size of cartilage lesions on tibial plateaus vs placebo ([1]; 2.5 mg/kg/day, 8 weeks): 45%
- reduction of size of cartilage lesions on femoral condyles vs placebo ([1]; 2.5 mg/kg/day, 8 weeks, P<0.05): 39%
- width of osteophytes ([1]; 2.5 mg/kg/day, 8 weeks): 3.57±0.56 mm
- osteophytes present (share of condyles) ([1]; 2.5 mg/kg/day, 8 weeks): 93%
- reduction of size of cartilage lesions on tibial plateaus vs placebo ([1]; 5 mg/kg/day, 8 weeks): 54%
- reduction of size of cartilage lesions on femoral condyles vs placebo ([1]; 5 mg/kg/day, 8 weeks, P<0.04): 61%
- width of osteophytes ([1]; 5 mg/kg/day, 8 weeks): 3.86±0.66 mm
- osteophytes present (share of condyles) ([1]; 5 mg/kg/day, 8 weeks): 86%
- macroscopic appearance of synovial membrane vs placebo ([1]; ML3000-treated dogs, 8 weeks): thinner, contained fewer blood vessels, and the discoloration was less intense
- grade of cartilage lesions on tibial plateaus ([1]; both doses (2.5 and 5 mg/kg/day), scale 0-4): significantly reduced
- grade of cartilage lesions on femoral condyles ([1]; treated dogs (2.5 and 5 mg/kg/day), scale 0-4): did not reach statistical significance
- level of PGE2 in synovial fluid (PGE2): markedly decreased
- chondrocyte cell score for collagenase-1 (collagenase-1 (MMP-1)): significant decrease
- number of synovial lining cells staining positive for IL-1β (interleukin-1β (IL-1β)): dose-dependent and significant decrease
- villous hyperplasia of synovial membrane ([2]; 5 mg/kg/day): significant reduction
- histologic severity of cartilage lesions on condyles vs placebo, significance ([2]; 5 mg/kg/day, Mankin scale 0-14): statistical significance was obtained
- histologic severity of cartilage lesions on tibial plateaus ([2]; 2.5 and 5 mg/kg/day (P<0.002 and P<0.02), Mankin scale): statistically significant decrease
- histologic severity of cartilage lesions on condyles vs placebo ([2]; ML3000-treated dogs, Mankin scale 0-14): less severe
- anti-inflammatory action [3]: potent anti-inflammatory action
- plasma ML3000 concentration maintained ([4]; dose 2.5 mg/kg): above 100 ng/mL
- plasma ML3000 concentration maintained ([4]; dose 5 mg/kg): > 200 ng/mL
- anti-inflammatory action (rat adjuvant arthritis): potent anti-inflammatory action
- LTB4 levels in cultured synovium (LTB4): statistically significant reduction
- body weight during the study period [5]: no change in the body weight

SMILES: CC(=O)Oc1ccccc1C(=O)O [ASA, acetylsalicylic acid]
- effect on progression of experimental OA [6]: ineffective (10) or even demonstrated to accelerate cartilage damage

SMILES: CC(C(=O)O)c1ccc2c(c1)[nH]c1ccc(Cl)cc12 (centres unmarked) [Carprofen]
- effect on progression of experimental OA [6]: exhibit anti-OA effects

SMILES: COc1ccc2c(c1)c(CC(=O)O)c(C)n2C(=O)c1ccc(Cl)cc1 [indomethacin]
- effect on progression of cartilage damage (knee OA patients): even accelerated its progression

SMILES: O=C(O)Cc1ccccc1Nc1c(Cl)cccc1Cl [diclofenac]
- effect on progression of experimental OA [6]: ineffective (10) or even demonstrated to accelerate cartilage damage

SMILES: CC(C(=O)O)c1ccc(C(=O)c2ccccc2)s1 (centres unmarked) [tiaprofenic acid]
- effect on progression of cartilage damage (knee OA patients): could not retard the progression of cartilage damage
